According to article PMC4844702, “Selective inhibition of the kinase DYRK1A by targeting its folding process” (Nature Communications, 2016):

What was measured:
Experiment in all cases: Kinase panel (Carna)
Type in all cases: biochemical
[1] = biological target: T1, TEC (Homo sapiens, UniProt P42680)
T1 construct: purchased Carna Biosciences
Description: (§1) Detailed information on the assay conditions is available on the website of Carna Biosciences (http://www.carnabio.com).

[2] = biological target: T2, NEK9 (Homo sapiens, UniProt Q8TD19)
T2 construct: purchased Carna Biosciences

[3] = biological target: T3, CDK6/CycD3 (Homo sapiens, UniProt Q00534)
T3 construct: purchased Carna Biosciences
Description: as §1

[4] = biological target: T4, CaMK2β (Homo sapiens, UniProt Q13554)
T4 construct: purchased Carna Biosciences

[5] = biological target: T5, CDK4/CycD3 (Homo sapiens, UniProt P11802)
T5 construct: purchased Carna Biosciences
Description: as §1

[6] = biological target: T6, p70S6K (Homo sapiens, UniProt P23443)
T6 construct: purchased Carna Biosciences
Description: as §1

[7] = biological target: T7, YES (Homo sapiens, UniProt P07947)
T7 construct: purchased Carna Biosciences
Description: as §1

[8] = biological target: T8, RON (Homo sapiens, UniProt Q04912)
T8 construct: purchased Carna Biosciences
Description: as §1

[9] = biological target: T9, EPHA6 (Homo sapiens, UniProt Q9UF33)
T9 construct: purchased Carna Biosciences

[10] = biological target: T10, BMX (Homo sapiens, UniProt P51813)
T10 construct: purchased Carna Biosciences
Description: as §1

[11] = biological target: T11, HIPK2 (Homo sapiens, UniProt Q9H2X6)
T11 construct: purchased Carna Biosciences
Description: as §1

[12] = biological target: T12, AXL (Homo sapiens, UniProt P30530)
T12 construct: purchased Carna Biosciences
Description: as §1

[13] = biological target: T13, p38δ (Homo sapiens, UniProt O15264)
T13 construct: purchased Carna Biosciences
Description: as §1

[14] = biological target: T14, MNK1 (Homo sapiens, UniProt Q9BUB5)
T14 construct: purchased Carna Biosciences

[15] = biological target: T15, MAPKAPK3 (Homo sapiens, UniProt Q16644)
T15 construct: purchased Carna Biosciences

[16] = biological target: T16, PLK1 (Homo sapiens, UniProt P53350)
T16 construct: purchased Carna Biosciences

[17] = biological target: T17, DLK_Cascade (Homo sapiens, UniProt Q12852)
T17 construct: purchased Carna Biosciences
Description: as §1

[18] = biological target: T18, JNK3 (Homo sapiens, UniProt P53779)
T18 construct: purchased Carna Biosciences

[19] = biological target: T19, CSK (Homo sapiens, UniProt P41240)
T19 construct: purchased Carna Biosciences
Description: as §1

[20] = biological target: T20, CGK2 (Homo sapiens, UniProt Q13237)
T20 construct: purchased Carna Biosciences
Description: as §1

[21] = biological target: T21, NDR1 (Homo sapiens, UniProt Q15208)
T21 construct: purchased Carna Biosciences
Description: as §1

[22] = biological target: T22, p38α (Homo sapiens, UniProt Q16539)
T22 construct: purchased Carna Biosciences
Description: as §1

[23] = biological target: T23, MARK4 (Homo sapiens, UniProt Q96L34); conditions: 10 µM FINDY
T23 construct: purchased Carna Biosciences
Description: as §1

[24] = biological target: T24, SLK (Homo sapiens, UniProt Q9H2G2)
T24 construct: purchased Carna Biosciences
Description: as §1

[25] = biological target: T25, MSSK1 (Homo sapiens, UniProt Q9UPE1)
T25 construct: purchased Carna Biosciences
Description: as §1

[26] = biological target: T26, TNIK (Homo sapiens, UniProt Q9UKE5)
T26 construct: purchased Carna Biosciences
Description: as §1

[27] = biological target: T27, Erk5 (Homo sapiens, UniProt Q13164)
T27 construct: purchased Carna Biosciences

[28] = biological target: T28, HIPK1 (Homo sapiens, UniProt Q86Z02)
T28 construct: purchased Carna Biosciences
Description: as §1

[29] = biological target: T29, NDR2 (Homo sapiens, UniProt Q9Y2H1)
T29 construct: purchased Carna Biosciences
Description: as §1

[30] = biological target: T30, RAF1_Cascade (Homo sapiens, UniProt P04049)
T30 construct: purchased Carna Biosciences

[31] = biological target: T31, FLT3 (Homo sapiens, UniProt P36888)
T31 construct: purchased Carna Biosciences
Description: as §1

[32] = biological target: T32, PBK (Homo sapiens, UniProt Q96KB5)
T32 construct: purchased Carna Biosciences
Description: as §1

[33] = biological target: T33, WNK2 (Homo sapiens, UniProt Q9Y3S1)
T33 construct: purchased Carna Biosciences
Description: as §1

[34] = biological target: T34, ROCK1 (Homo sapiens, UniProt Q13464)
T34 construct: purchased Carna Biosciences

[35] = biological target: T35, PAK4 (Homo sapiens, UniProt O96013)
T35 construct: purchased Carna Biosciences
Description: as §1

[36] = biological target: T36, SYK (Homo sapiens, UniProt P43405)
T36 construct: purchased Carna Biosciences
Description: as §1

[37] = biological target: T37, MLK2_Cascade (Homo sapiens, UniProt Q02779)
T37 construct: purchased Carna Biosciences
Description: as §1

[38] = biological target: T38, PKCε (Homo sapiens, UniProt Q02156)
T38 construct: purchased Carna Biosciences
Description: as §1

[39] = biological target: T39, AKT1 (Homo sapiens, UniProt P31749)
T39 construct: purchased Carna Biosciences
Description: as §1

[40] = biological target: T40, CRIK (Homo sapiens, UniProt O14578)
T40 construct: purchased Carna Biosciences

[41] = biological target: T41, TSSK3 (Homo sapiens, UniProt Q96PN8)
T41 construct: purchased Carna Biosciences
Description: as §1

[42] = biological target: T42, TYK2 (Homo sapiens, UniProt P29597)
T42 construct: purchased Carna Biosciences
Description: as §1

[43] = biological target: T43, PKCγ (Homo sapiens, UniProt P05129)
T43 construct: purchased Carna Biosciences
Description: as §1

[44] = biological target: T44, JAK1 (Homo sapiens, UniProt P23458)
T44 construct: purchased Carna Biosciences
Description: as §1

T19 sequence (P41240 whole entry): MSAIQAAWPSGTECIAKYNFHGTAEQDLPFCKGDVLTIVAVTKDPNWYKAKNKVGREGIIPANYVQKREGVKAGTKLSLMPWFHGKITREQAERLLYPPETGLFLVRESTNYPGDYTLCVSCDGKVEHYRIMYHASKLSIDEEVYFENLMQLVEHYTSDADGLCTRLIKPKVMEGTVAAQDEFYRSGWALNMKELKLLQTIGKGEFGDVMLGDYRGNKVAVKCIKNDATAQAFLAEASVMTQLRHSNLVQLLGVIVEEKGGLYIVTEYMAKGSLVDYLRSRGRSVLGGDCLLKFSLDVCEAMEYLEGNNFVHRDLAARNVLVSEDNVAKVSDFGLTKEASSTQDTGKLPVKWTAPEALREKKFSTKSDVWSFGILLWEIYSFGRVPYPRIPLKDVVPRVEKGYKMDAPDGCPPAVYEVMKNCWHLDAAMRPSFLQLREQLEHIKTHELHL
T11 sequence (Q9H2X6 whole entry): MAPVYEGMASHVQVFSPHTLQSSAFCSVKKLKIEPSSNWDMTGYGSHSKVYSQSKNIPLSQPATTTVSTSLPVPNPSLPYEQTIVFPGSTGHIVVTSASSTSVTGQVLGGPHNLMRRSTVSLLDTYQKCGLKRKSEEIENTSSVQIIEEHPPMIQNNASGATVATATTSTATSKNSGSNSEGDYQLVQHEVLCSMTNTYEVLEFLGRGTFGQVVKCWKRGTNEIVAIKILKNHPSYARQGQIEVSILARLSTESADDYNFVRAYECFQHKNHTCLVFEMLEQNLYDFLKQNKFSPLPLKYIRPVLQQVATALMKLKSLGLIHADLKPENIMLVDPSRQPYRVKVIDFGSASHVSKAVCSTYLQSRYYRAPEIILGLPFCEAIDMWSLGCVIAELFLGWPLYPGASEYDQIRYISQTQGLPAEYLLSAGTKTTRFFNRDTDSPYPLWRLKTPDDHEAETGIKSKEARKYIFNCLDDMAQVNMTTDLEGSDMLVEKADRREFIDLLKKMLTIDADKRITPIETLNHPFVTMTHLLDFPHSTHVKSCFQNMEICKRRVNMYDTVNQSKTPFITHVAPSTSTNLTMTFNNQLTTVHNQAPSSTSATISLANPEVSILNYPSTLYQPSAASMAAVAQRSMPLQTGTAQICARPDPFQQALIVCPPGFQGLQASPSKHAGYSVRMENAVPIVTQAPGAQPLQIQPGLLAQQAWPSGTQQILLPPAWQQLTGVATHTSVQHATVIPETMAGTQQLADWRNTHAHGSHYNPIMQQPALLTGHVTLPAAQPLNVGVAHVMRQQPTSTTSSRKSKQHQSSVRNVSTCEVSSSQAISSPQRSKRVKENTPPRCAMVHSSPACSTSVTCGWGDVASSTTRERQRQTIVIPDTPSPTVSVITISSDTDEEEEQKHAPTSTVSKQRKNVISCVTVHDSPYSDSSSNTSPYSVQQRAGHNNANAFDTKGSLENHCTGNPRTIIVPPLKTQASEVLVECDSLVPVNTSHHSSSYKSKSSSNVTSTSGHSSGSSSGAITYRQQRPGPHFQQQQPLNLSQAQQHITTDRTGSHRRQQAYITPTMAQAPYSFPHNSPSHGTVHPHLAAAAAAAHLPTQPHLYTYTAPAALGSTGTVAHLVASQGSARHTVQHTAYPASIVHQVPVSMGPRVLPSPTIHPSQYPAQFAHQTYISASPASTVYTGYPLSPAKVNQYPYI
T23 sequence (Q96L34 whole entry): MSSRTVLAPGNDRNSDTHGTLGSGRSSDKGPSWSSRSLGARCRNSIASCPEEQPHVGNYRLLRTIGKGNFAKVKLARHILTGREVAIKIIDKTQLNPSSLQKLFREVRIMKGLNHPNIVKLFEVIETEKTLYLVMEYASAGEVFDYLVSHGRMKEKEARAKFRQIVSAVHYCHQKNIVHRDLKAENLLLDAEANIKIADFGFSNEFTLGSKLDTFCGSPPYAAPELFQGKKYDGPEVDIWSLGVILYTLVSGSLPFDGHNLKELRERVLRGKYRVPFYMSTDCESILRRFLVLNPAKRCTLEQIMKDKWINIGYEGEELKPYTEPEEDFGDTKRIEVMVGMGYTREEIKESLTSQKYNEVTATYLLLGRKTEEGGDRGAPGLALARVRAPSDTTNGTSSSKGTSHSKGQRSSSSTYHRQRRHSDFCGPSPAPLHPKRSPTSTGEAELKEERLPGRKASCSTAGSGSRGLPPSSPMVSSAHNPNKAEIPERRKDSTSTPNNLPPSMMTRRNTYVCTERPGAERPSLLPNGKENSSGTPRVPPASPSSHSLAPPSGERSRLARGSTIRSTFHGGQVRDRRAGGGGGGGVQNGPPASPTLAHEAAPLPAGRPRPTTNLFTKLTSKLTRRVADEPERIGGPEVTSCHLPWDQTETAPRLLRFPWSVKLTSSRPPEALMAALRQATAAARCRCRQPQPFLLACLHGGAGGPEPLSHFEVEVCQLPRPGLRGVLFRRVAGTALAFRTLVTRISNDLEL
T8 sequence (Q04912 25-1400): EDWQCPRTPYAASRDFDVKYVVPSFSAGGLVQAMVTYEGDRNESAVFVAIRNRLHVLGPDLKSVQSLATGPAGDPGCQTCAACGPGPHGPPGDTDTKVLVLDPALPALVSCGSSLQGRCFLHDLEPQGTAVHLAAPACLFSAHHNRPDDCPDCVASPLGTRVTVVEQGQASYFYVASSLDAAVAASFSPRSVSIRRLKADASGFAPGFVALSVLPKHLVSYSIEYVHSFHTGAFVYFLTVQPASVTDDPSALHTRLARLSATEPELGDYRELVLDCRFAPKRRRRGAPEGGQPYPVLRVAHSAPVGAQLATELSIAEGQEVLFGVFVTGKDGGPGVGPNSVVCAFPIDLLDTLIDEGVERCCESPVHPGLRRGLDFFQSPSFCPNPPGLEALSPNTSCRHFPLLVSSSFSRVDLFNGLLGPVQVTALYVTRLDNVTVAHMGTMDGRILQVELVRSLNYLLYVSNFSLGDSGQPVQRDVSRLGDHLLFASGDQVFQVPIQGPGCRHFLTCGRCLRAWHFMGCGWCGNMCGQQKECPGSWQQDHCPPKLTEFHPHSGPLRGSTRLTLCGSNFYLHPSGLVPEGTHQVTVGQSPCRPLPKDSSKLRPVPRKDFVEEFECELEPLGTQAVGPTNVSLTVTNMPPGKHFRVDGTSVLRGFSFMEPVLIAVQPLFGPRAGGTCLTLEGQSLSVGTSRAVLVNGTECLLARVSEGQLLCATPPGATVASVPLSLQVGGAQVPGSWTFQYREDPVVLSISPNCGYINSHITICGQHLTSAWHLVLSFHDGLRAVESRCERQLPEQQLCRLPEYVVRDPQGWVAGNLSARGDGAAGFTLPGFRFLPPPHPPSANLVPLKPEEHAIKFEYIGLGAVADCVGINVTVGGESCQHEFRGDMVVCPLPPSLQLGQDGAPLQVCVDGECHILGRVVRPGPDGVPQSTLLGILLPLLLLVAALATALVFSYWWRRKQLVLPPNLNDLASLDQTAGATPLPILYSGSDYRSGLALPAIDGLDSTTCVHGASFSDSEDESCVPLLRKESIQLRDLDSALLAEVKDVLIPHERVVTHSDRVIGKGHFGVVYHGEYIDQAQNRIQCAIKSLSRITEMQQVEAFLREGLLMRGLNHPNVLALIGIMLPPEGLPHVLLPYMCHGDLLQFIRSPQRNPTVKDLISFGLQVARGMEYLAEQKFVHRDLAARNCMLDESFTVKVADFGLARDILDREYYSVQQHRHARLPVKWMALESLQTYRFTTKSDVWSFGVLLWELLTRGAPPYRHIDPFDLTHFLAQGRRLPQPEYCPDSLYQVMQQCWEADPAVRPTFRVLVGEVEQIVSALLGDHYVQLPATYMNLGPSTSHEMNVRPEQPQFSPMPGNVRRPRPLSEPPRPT
T31 sequence (P36888 27-993): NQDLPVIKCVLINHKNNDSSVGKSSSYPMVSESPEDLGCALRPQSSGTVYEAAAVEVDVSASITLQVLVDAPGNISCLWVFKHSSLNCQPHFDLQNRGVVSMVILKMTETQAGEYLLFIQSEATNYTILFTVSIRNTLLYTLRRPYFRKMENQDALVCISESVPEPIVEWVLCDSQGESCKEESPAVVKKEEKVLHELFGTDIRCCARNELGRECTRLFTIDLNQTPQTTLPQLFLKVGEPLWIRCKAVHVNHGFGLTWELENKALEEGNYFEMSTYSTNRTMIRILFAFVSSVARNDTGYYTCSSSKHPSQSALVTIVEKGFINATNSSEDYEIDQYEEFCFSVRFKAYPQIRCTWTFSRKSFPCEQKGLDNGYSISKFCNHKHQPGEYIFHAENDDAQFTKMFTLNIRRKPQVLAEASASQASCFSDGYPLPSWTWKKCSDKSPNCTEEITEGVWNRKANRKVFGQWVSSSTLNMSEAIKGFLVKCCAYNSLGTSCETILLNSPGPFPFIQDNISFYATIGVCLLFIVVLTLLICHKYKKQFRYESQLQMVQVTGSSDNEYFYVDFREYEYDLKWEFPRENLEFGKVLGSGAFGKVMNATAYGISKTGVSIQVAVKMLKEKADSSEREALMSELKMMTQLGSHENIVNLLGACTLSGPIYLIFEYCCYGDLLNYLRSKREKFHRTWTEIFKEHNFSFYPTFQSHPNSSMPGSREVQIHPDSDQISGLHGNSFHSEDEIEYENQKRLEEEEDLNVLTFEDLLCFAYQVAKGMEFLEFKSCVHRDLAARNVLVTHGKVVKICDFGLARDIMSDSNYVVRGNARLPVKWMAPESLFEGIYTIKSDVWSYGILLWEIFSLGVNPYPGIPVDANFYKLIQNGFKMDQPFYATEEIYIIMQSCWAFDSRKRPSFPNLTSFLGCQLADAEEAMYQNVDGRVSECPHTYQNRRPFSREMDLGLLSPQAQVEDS
T33 sequence (Q9Y3S1 166-489 limits assumed): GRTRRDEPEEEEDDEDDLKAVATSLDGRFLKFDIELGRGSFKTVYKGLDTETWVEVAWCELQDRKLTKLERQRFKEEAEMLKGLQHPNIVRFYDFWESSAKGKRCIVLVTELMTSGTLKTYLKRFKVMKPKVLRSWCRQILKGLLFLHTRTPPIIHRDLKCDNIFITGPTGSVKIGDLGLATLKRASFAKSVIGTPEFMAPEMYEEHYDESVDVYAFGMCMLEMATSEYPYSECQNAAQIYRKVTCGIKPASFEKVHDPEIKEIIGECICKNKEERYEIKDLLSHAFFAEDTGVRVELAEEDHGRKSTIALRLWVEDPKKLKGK

Work on `COc1ccc(/C=C2\SC(=S)NC2=O)cc1C#C[Si](C)(C)C` [FINDY] yielded an inhibition at 10 µM [1] of 32%, an inhibition at 10 µM [2] of -3.3% and an inhibition at 10 µM [3] of 3.2%. For the same compound, the inhibition at 10 µM [4] was -3.3%, the inhibition at 10 µM [5] was 8% and the inhibition at 10 µM [6] was 7.4%. It also gave an inhibition at 10 µM [7] of 6.4%, an inhibition at 10 µM [8] of 9.2% and an inhibition at 10 µM [9] of 59.4%. It also gave an inhibition at 10 µM [10] of 10.5%, an inhibition at 10 µM [11] of 6.2% and an inhibition at 10 µM [12] of 6.7%. For the same compound, the inhibition at 10 µM [13] was 11.9%, the inhibition at 10 µM [14] was 6.2% and the inhibition at 10 µM [15] was 29.2%. For the same compound, the inhibition at 10 µM [16] was 23.7%, the inhibition at 10 µM [17] was 23.5% and the inhibition at 10 µM [18] was 4.5%. The inhibition at 10 µM [19] was 6.7%, the inhibition at 10 µM [20] was 14.6% and the inhibition at 10 µM [21] was 3.8%. It also gave an inhibition at 10 µM [22] of 10.6%, an inhibition at 10 µM [23] of 79.8% and an inhibition at 10 µM [24] of -35%. The inhibition at 10 µM [25] was 6.6%, the inhibition at 10 µM [26] was 10.7% and the inhibition at 10 µM [27] was -4%. For the same compound, the inhibition at 10 µM [28] was 11.8%, the inhibition at 10 µM [29] was 8.1% and the inhibition at 10 µM [30] was 50.9%. It also gave an inhibition at 10 µM [31] of 16%, an inhibition at 10 µM [32] of 14.6% and an inhibition at 10 µM [33] of 12.3%. For the same compound, the inhibition at 10 µM [34] was 6.8%, the inhibition at 10 µM [35] was -20.1% and the inhibition at 10 µM [36] was 72.8%. For the same compound, the inhibition at 10 µM [37] was 41%, the inhibition at 10 µM [38] was -6.6% and the inhibition at 10 µM [39] was 36.6%. It also gave an inhibition at 10 µM [40] of 1.9%, an inhibition at 10 µM [41] of 20.3% and an inhibition at 10 µM [42] of -5.4%. For the same compound, the inhibition at 10 µM [43] was 4.1% and the inhibition at 10 µM [44] was 5.7%.
